From the METLIN SMRT retention time set (Domingo-Almenara et al. 2019) come the findings set out here.

The nature of this data set: gradient 5% acetonitrile 3 min, to 50% in 2 min, to 85% in 15 min, held 3 min, 100 µL/min. The note with it: column: Zorbax Extend-C18 2.1 x 50 mm; eluents: water / acetonitrile, 0.1% formic acid. In short, it runs like this:
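Retention times of pure standards were taken from adduct peaks that were selected by computer and manually inspected. Over 3 months, mixtures of ~100 molecules were run by HPLC–quadrupole time-of-flight mass spectrometry in positive and negative ionization mode. The Zorbax Extend-C18 column (2.1 × 50 mm, 1.8 μm) ran at 100 μL/min in water and acetonitrile, each containing 0.1% formic acid, with 40 μL dead volume and 900 μL dwell volume.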
On to `CCCC(NC(=O)c1ccncc1)C(=O)Nc1nc2ccccc2[nH]1` (centres undefined), for which the RP-LC retention time is 602 s.
As for `CCNC(=O)N1CCC2(CC1)c1nccn1-c1ccccc1CN2CC(C)C`, the figure is 623 s.
Next, `CCc1ccccc1N1C(=O)CN(S(=O)(=O)CC)CC1(C)C(=O)NCc1ccccc1` (centres undefined): 860 s.
Next, `CCCC(NC(=O)Cc1ccccc1C)C(=O)Nc1nc2ccccc2[nH]1` (centres undefined): 704 s; `Cc1cc(=O)n(CC(=O)Nc2ccc(F)cc2Cl)c(N2CCCCC2)n1`: 718 s; `O=C(Cn1ccc2ccc(N3CCOCC3)nc21)N1CCN(c2ccc(F)cc2)CC1`: 898 s.
For the compound `CC(=O)c1ccc(NC(=O)Cn2cnc3nc4c(cc3c2=O)CC(C)CC4)cc1` (centres undefined), the RP-LC retention time worked out at 738 s.
As for `COc1ccc(C2(C(=O)N3CCCOCCNC(=O)[C@@H]4CCCC[C@@H]43)CC2)cc1`, the figure is 750 s; as for `O=C(Nc1ccccc1Br)N1CCC(n2cnc3cccnc32)CC1`, 670 s; as for `CCOC(=O)Cc1ccc(NC(=O)NC(C)C(=O)N2CCc3ccccc32)cc1` (centres undefined), 857 s.
In turn, `COc1ccc(CCC(=O)N2CCc3cc(-c4csc(C)n4)ccc32)cc1` had an RP-LC retention time of 1060 s.
Next, `O=S(=O)(Nc1cccc(Cl)c1)c1c[nH]c2ncccc12`: 765 s.
Next, `COc1ccc(-c2ncc3c(n2)CCN(C(=O)Nc2cccc(C)c2C)C3)cc1`: 894 s; `CCN(Cc1ccc(Cl)cc1)Cc1cc(=O)n2cccc(C)c2n1`: 648 s.
Take `CN(C)c1ccc(C(=O)N2CCN(c3cc(-c4ccc(Cl)cc4)[nH]n3)CC2)cc1`: the RP-LC retention time worked out at 865 s.
Next, `Cc1noc(C2(NC(=O)C3CCCCC3)CCCCC2)n1`: 873 s; `Cc1cc(N(C)C)n2nc(CN(C)Cc3ccccc3)nc2n1`: 577 s.
Next, `CCn1nccc1-c1cccc(-c2noc(CNC(=O)c3ccco3)n2)c1`: 791 s; `Cc1nc2cccnc2n1CCN1CCN(C(=O)Nc2ccc(Cl)cc2)CC1`: 610 s; `Cc1nc2ccn(Cc3cccs3)c(=O)c2cc1C(=O)NC1CCCCC1`: 801 s.
Next, `Cc1ccc(C(=O)NCc2nc(-c3ccc(-c4csc(C)n4)cc3)no2)cc1`: 964 s; `Oc1ccc(-c2nc3ccc(Cl)cn3c2Nc2ccc(Cl)cc2)cc1`: 733 s.
`COc1ccc(C2C(C(=O)O)c3ccccc3C(=O)N2C)cc1OC` (centres undefined) gave an RP-LC retention time of 657 s.
`Cc1nc2cc(NC(=O)c3ccc(N4CCOCC4)nn3)ccc2s1` gave an RP-LC retention time of 676 s.
`Cc1ccc(-c2nc3ncccn3c2Nc2ccc(C)c(Cl)c2)cc1`: the RP-LC retention time is 910 s.
As for `CCc1ccc(NS(=O)(=O)c2cc(-c3cc(C(F)(F)F)on3)sc2C)cc1`, the figure is 1230 s; as for `Cc1ccc(-c2cn3c(CC(=O)N4CCN(c5ccc(Cl)cc5)CC4)csc3n2)cc1C`, 997 s; as for `CCCCCCCNCc1ccc2c(c1)n(C)c(=O)n2C`, 641 s.
Next, `O=C(Nc1ccccc1)N1CCN(c2nc3ccccc3nc2C(F)(F)F)CC1`: 1070 s; `Cc1nnc(-c2cn(CC(=O)NC3CCCCCCC3)c3ccccc23)o1`: 903 s; `CCOC(=O)c1noc2ncnc(Nc3ccc(CN4CCN(CC)CC4)cc3)c12`: 638 s.
Next, `Cc1ccc(NC(=O)C2CCc3nc(N4CCCCC4)ncc3C2)cc1` (centres undefined): 822 s; `O=C(c1ccco1)N1CCC(n2c(-c3ccsc3)nc3cccnc32)C1` (centres undefined): 644 s.
The compound `COc1cccc(S(=O)(=O)N2CCC(c3noc(-c4ccccc4C)n3)CC2)c1` gave an RP-LC retention time of 1140 s.
Next, `O=C(Cc1c(F)cccc1Cl)N1CCN(c2cc(-c3cccs3)[nH]n2)CC1`: 840 s.
`O=C(Cn1ncc2c(c1=O)N(CC1CC1)C(=O)CS2)N1CCN(c2ccccc2)CC1` yielded an RP-LC retention time of 788 s.
In turn, `Cc1cc(C)c2c(-n3cccc3)nn(CC(=O)NCc3cccc(Br)c3)c2n1` displayed an RP-LC retention time of 1020 s.
In turn, `COc1ccccc1Nc1c(-c2cccc(O)c2)nc2cnccn12` displayed an RP-LC retention time of 681 s.
As for `COc1ccc(C(=O)Cn2c(=O)n(Cc3ccc4c(c3)OCO4)c(=O)c3ncccc32)cc1`, the figure is 819 s; as for `Cn1cc(-c2cc3n(n2)CCC(=O)N3CCCC(=O)N2CCN(c3ccccn3)CC2)c2ccccc21`, 619 s.
Next, `CCn1ccc(C(=O)NCc2cccnc2Oc2ccccc2)n1`: 705 s; `CCOC(=O)c1ccc(NC(=O)Nc2cccs2)cc1`: 888 s.
On to `COc1ccc2c(c1)C1(CCN(C(=O)NCCC(C)C)C1)C(=O)N2` (centres undefined), for which the RP-LC retention time was 716 s.
`Cc1ccc(S(=O)(=O)N2CCCN(c3ccc(=O)n(-c4ccccc4)n3)CC2)cc1C` registered an RP-LC retention time of 912 s.
As to `CCC(Sc1nc(=O)cc(N)n1CCc1ccccc1)C(=O)Nc1nc(-c2ccccc2)cs1` (centres undefined), the RP-LC retention time was found to be 878 s.
On to `COCCCNC(=O)C1CCN(c2ccc(Sc3cccc(F)c3)nn2)CC1`, for which the RP-LC retention time came out at 675 s.
On to `O=C(C1CCN(S(=O)(=O)c2ccc(-c3noc(-c4ccccn4)n3)cc2)CC1)N1CCCC1`, for which the RP-LC retention time was determined as 792 s.
Take `CCCN1CCN(C(=O)C2CCN(S(=O)(=O)c3ccc4c(c3)NC(=O)CO4)CC2)CC1`: the RP-LC retention time turned out to be 586 s.
Take `Cc1ccc(CNC(=O)C2CCCN(C(=O)c3[nH]c(C)cc3C)C2)cc1` (centres undefined): the RP-LC retention time turned out to be 804 s.
Next, `Cc1ccc(NC(=O)Cn2c(=O)n(-c3cccc(C)c3)c(=O)c3c2cc(C)n3C)cc1`: 899 s; `Cc1ccc(-c2cc(C(=O)NCc3ccc4c(c3)OCO4)ccn2)s1`: 902 s.
Next, `Cc1cccc(NC(=O)Cn2cc(S(=O)(=O)c3ccc(F)cc3)c3ccccc32)n1`: 832 s.
Consider `Cc1ccc(CN2CC(c3nc(CCOCc4ccccc4)no3)C2)s1`, for which the RP-LC retention time was 716 s.
The compound `Cc1noc(C2CN(C(=O)CCCc3ccccc3)CC23CCOCC3)n1` (centres undefined) yielded an RP-LC retention time of 736 s.
With `COc1ccccc1NC(=O)Cn1nc2cc(-c3ccccc3)nc(C)n2c1=O`, the RP-LC retention time was determined as 944 s.
As for `Cc1ccc(-n2c(=O)c3sccc3n(Cc3nc(-c4ccccc4)no3)c2=O)cc1`, the figure is 985 s.
As for `COc1ccc2c(c1)C1(CCN(C(=O)C(C)(C)C)C1)C(=O)N2C` (centres undefined), the figure is 764 s; as for `COc1ccccc1-c1nnc(-c2ccc(OC)c(S(=O)(=O)N(C)C)c2)o1`, 798 s.
As for `CCN(CC)S(=O)(=O)c1ccc2c(c1)ncn2CCC(=O)N1CCN(c2ccccn2)CC1`, the figure is 602 s.
